Where two headings read alike, the source gives them in different places.
What was measured:
HT22 cells [1] = assay: HT22 oxidative glutamate toxicity (oxytosis) assay; type: cell-based, mouse; conditions: for EC50: Mus musculus, HT-22
Method: FIG. 1D illustrates the results of an oxidative stress assay. HT22 cells were treated with 5 mM glutamate and different concentrations of two versions of curcumin derivatives. Cell viability was measured 24 hr later by the MTT assay (J. B. Davis and P. Maher, Protein kinase C activation inhibits glutamate-induced cytotoxicity in a neuronal cell line. Brain Res. 652 (1994) 169-173). Legend for FIG. 1A, FIG. 1B and FIG. 1D: x-x, Cmpd CNB-001, o-o, Cmpd J147.
Similar toxicity assays as described above are also conducted with invention compounds using HT22 cells in an assay for oxidative stress. After exposure with 1 mM, 2 mM, 2.5 mM, or 5 mM glutamate, cell viability is determined with the MTT assay.
HT22 hippocampal neurons are treated with 5 mM glutamate and increasing concentrations of invention compounds. Cell viability is measured 24 hr later by the MTT assay (Davis and Maher, Brain Res. 652:169-173 (1994)).

primary cortical neurons = assay: Trophic factor withdrawal (TFW) assay; type: cell-based, rat; conditions: Rattus norvegicus, Primary cortical neuron
Method: FIG. 1A illustrates the results of a trophic factor withdrawal assay. Primary cortical neurons are prepared from 18-day-old rat embryos, and cultured at low cell density 1×10^6/35 mm dish, in serum containing medium, with different compounds Viability is then assayed 2 days later using a fluorescent live-dead assay (Molecular Probes).
Primary cortical neurons can be prepared from 18-day-old embryos of Sprague-Dawley rats as described (Liu & Schubert, J. Neurochem., 1997, 69:2285-2293 and J. Neurochem., 1998, 71:2322-2329). Briefly, the cerebral cortex is dissected out under an anatomical microscope and is freed of meninges and blood vessels. The cortex is cut into small pieces and is then dissociated by trypsin digestion and passed through a pipette tip. Dissociated neurons are suspended in various media and plated on polylysine-coated 35 mm tissue culture dishes (e.g., 1×10^6 cells/dish). Several different culture conditions can be used as known in the art. Invention compounds can be added to cell culture dishes. Cell survival can be measured 1-2 days after compound administration.
A serum-containing medium can be used which includes a minimal essential medium (Sigma) containing 30 mM glucose, 2 mM glutamine, 1 mM pyruvate, penicillin (100 U/ml), streptomycin (100 μg/ml), and 10% fetal calf serum. At a plating density of 1×10^6 cells/dish, most neurons die after one week of culture in this medium. If plated at a density of 2×10^6 cells/dish, then most neurons survive. The cell density-dependent neuronal survival in this system is most likely dependent on the neurotrophic factors secreted by the neurons, not by the glia. The results are the same when glial proliferation is inhibited by cytosine arabinoside.
The structure-activity relationships of compounds according to the present invention can be determined by measuring trophic factor withdrawal in […] primary cortical neurons. As shown in FIG. 1A-FIG. 1D, compounds are added to low density primary cultures of E18 rat cortical neurons at the time of plating, and cell survival is determined two days later by a variety of methods.

Cortical Nerve = assay: In vitro ischemia, cortical nerve; type: cell-based; set-up: key: + = positive result or enzyme activation
Retinal Ganglion Cells = assay: In vitro ischemia, retinal ganglion cells; type: cell-based; set-up: key: + = positive result or enzyme activation
HT22 cells [2] = assay: Chemical ischemia (iodoacetic acid) in HT22 mouse hippocampal cells; type: cell-based; set-up: key to In Vitro Ischemia, Mouse hippocampal cells: + = positive result or enzyme activation; conditions: for Cell death caused by treatment of HT22 cells with 20 μM IAA: 20 μM iodoacetic acid for 2 hr, MTT after 24 hr
Method: FIG. 2 illustrates the ability of invention compounds CNB-001 and J147 to protect nerve cells from chemical ischemia. HT22 cells were treated with 20 μM iodoacetic acid for 2 hr alone or in the presence of varying concentrations of CNB-001 or J147. % survival was confirmed by microscopy and measured after 24 hr by the MTT assay.
Most cell culture models of ischemia utilize primary cortical cultures that are exposed to some form of oxygen and glucose deprivation. While these assays may come closer to mimicking the in vivo conditions than assays employing neuronal cell lines, they have a number of problems that make them difficult to use for the routine screening of potential neuroprotective compounds. The most serious problem is that the condition needed to kill a fixed percentage of cells are highly variable from experiment to experiment, making it very difficult to get accurate values for neuroprotective activity. In order to circumvent this and other problems, a mouse nerve cell line was used in combination with chemical ischemia as a screen for potential neuroprotective drugs for ischemia. To induce chemical ischemia, iodoacetic acid (IAA), a well known, irreversible inhibitor of the glycolytic enzyme glyceraldehyde 3-phosphate dehydrogenase (G3PDH) (see B. S. Winkler et al., Modulation of the Pasteur effect in retinal cells: implications for understanding compensatory metabolic mechanisms, in Exp Eye Res 76 (2003) 715-723) was used in combination with the HT22 mouse hippocampal cell line. IAA has been used in a number of other studies to induce ischemia in nerve cells. The changes following IAA treatment of neural cells are very similar to changes which have been seen in animal models of CNS trauma and ischemia. These include alterations in membrane potential, breakdown of phospholipids, loss of ATP, and an increase in reactive oxygen species. A 2 hr treatment of the HT22 cells with 20 μM IAA induces over 90% cell death 20 hr later. […]

Memory = assay: Memory, animal models (Table 2); set-up: key: + = positive result or enzyme activation; conditions: in vivo
CREB = CREB phosphorylation; type: cell-based, mouse; set-up: key: + = positive result or enzyme activation
Description: CREB activation has been linked to cell survival and accordingly, is considered to be a validated therapeutic target (Vaishnov, et al, Biochem. Biophys. Res. Commun. 307:855-860 (2003)). Similar to the concept of programmed cell death which involves transcription factors pivotal in switching on the nerve cell death program is the transcriptional control of programmed cell life. For example, recent studies of the activation of the CREB transcription factor in stroke models have shown that CREB is phosphorylated (and presumably activated) in neurons that survive this insult.
CREB phosphorylation in response to oxidative stress is evaluated in the presence of invention compounds. Glutamate is added to HT22 cells in the presence or absence of Cmpd CNB-001 (at 1 μM). The ratio of phosphorylated CREB to total CREB is then measured as a function of time. Furthermore, all of the HT22 cells die in the absence of Cmpd CNB-001, and over 90% live in the presence of Cmpd CNB-001.

[3] = Cell Culture (Table 2), read-out: Oxidative Glutamate Toxicity
[4] = Cell Culture (Table 2), read-out: Trophic Factor Withdrawal

SMILES | EC50 (HT22 cells [1]; [3]) [nM] | EC50 (HT22 cells [1]; HT22 cells, following 5 mM glutamate exposure, MTT, read-out: EC50) [nM] | EC50 (HT22 cells [1]; Oxidative glutamate toxicity (oxytosis), read-out: HT-22 EC50) [nM] | EC50 (primary cortical neurons; [4]) [nM] | EC50 (primary cortical neurons; Trophic factor withdrawal assay, read-out: TFW EC50) [nM] | In Vitro Ischemia, Cortical Nerve (Cortical Nerve) | In Vitro Ischemia, Retinal Ganglion Cells (Retinal Ganglion Cells) | Cell death caused by treatment of HT22 cells with 20 μM IAA (HT22 cells [2]) | Memory (Memory) | Memory, Animal (Memory) | CREB (CREB) | HT22 cells that live (HT22 cells [1]; glutamate, in the presence of Cmpd CNB-001 at 1 μM) | In Vitro Ischemia, Mouse hippocampal cells (HT22 cells [2])
COc1cccc(/C=N/N(C(=O)C(F)(F)F)c2ccc(C)cc2C)c1 [Compound J147] | 5 | ~5 | 6 | 10 | 50 | + | + | can be prevented | + | + | + | – | –
COc1cc(/C=C/c2cc(/C=C/c3ccc(O)c(OC)c3)n(-c3ccccc3)n2)ccc1O [CNB-001] | 500 | – | – | 500 | – | + | + | can be prevented | + | + | + | over 90% | +
